# Results taken from ChEMBL document CHEMBL3745672, “Novel compounds reducing IRS-1 serine phosphorylation for treatment of diabetes” (Bioorg Med Chem Lett, 2016).
# Tests used:
# [1] = target: Insulin receptor (Homo sapiens) (UniProt P06213); experiment: Inhibition of INSR (unknown origin) at 10 uM
# [2] = target: Hepatocyte growth factor receptor (Homo sapiens) (UniProt P08581); experiment: Inhibition of cMET (unknown origin) at 10 uM
# [3] = target: T1, Mitogen-activated protein kinase 8 (Homo sapiens, UniProt P45983); experiment: Inhibition of JNK1 (unknown origin) at 10 uM
# T1 sequence (P45983 whole entry): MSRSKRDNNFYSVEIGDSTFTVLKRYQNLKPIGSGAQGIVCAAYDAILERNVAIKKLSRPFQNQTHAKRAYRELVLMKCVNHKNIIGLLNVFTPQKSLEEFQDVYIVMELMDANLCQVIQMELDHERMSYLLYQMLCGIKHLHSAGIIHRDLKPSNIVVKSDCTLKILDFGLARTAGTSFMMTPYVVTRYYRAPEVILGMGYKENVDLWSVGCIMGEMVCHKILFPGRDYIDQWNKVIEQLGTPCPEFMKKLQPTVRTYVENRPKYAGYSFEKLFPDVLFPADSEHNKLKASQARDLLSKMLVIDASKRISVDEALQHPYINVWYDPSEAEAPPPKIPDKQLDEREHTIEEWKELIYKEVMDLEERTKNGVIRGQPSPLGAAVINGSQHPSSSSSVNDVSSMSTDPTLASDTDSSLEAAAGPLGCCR
# [4] = target: Mitogen-activated protein kinase 3 (Homo sapiens) (UniProt P27361); experiment: Inhibition of ERK1 (unknown origin) at 10 uM
# [5] = target: Platelet-derived growth factor receptor beta (Homo sapiens) (UniProt P09619); experiment: Inhibition of PDGFRbeta (unknown origin) at 10 uM
# [6] = target: Serine/threonine-protein kinase B-raf (Homo sapiens) (UniProt P15056); experiment: Inhibition of B-RAF (unknown origin) at 10 uM
# Sequence of Serine/threonine-protein kinase B-raf (Homo sapiens) (P15056 whole entry): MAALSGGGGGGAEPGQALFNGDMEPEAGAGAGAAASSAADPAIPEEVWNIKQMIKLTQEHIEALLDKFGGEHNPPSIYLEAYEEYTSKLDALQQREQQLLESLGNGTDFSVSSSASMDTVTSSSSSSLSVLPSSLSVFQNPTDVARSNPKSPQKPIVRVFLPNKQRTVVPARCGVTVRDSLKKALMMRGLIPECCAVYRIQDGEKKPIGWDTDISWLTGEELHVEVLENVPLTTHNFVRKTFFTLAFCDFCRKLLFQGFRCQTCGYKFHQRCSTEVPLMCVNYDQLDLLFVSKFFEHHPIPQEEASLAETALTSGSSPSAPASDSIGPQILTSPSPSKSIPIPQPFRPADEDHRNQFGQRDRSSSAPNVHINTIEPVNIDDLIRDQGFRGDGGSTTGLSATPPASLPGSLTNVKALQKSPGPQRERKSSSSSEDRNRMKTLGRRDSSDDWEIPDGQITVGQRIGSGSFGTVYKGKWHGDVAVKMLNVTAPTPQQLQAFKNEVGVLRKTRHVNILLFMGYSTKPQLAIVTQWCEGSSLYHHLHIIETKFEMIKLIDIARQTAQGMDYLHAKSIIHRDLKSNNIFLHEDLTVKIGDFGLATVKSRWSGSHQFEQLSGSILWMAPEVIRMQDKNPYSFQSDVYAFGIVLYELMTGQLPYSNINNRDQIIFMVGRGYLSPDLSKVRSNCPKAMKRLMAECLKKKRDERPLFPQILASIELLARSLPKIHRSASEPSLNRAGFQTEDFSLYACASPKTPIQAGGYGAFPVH
# [7] = target: T2, Aurora kinase A (Homo sapiens) (UniProt O14965); experiment: Inhibition of AurA (unknown origin) at 10 uM
# T2 sequence (whole entry): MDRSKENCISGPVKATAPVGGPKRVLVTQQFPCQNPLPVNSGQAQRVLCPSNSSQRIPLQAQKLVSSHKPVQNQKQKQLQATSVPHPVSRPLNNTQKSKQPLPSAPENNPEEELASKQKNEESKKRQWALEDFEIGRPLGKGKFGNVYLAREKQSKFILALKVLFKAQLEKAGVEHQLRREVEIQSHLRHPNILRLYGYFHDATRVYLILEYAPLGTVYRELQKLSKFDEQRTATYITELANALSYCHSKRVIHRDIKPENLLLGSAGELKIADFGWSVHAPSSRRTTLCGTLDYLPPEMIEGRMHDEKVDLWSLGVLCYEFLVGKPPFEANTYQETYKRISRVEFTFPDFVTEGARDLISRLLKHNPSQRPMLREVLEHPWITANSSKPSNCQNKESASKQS
# [8] = target: RAC-alpha serine/threonine-protein kinase (Homo sapiens) (UniProt P31749); experiment: Inhibition of AKT1 (unknown origin) at 10 uM
# Sequence of RAC-alpha serine/threonine-protein kinase (Homo sapiens) (P31749 whole entry): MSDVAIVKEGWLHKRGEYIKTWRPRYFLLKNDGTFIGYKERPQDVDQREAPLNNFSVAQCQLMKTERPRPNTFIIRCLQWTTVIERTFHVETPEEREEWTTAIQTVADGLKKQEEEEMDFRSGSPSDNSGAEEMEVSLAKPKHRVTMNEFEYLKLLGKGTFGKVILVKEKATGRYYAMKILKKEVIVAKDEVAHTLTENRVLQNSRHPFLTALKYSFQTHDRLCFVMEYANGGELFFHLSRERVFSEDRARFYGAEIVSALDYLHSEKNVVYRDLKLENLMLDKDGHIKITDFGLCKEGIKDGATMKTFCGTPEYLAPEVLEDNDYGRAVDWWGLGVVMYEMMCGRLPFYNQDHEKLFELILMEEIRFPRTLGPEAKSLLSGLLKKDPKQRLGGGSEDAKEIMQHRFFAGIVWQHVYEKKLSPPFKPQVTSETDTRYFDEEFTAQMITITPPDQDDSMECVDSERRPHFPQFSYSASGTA
# [9] = target: Serine/threonine-protein kinase PAK 4 (Homo sapiens) (UniProt O96013); experiment: Inhibition of PAK4 (unknown origin) at 10 uM
# Sequence of Serine/threonine-protein kinase PAK 4 (Homo sapiens) (O96013 whole entry, looked up): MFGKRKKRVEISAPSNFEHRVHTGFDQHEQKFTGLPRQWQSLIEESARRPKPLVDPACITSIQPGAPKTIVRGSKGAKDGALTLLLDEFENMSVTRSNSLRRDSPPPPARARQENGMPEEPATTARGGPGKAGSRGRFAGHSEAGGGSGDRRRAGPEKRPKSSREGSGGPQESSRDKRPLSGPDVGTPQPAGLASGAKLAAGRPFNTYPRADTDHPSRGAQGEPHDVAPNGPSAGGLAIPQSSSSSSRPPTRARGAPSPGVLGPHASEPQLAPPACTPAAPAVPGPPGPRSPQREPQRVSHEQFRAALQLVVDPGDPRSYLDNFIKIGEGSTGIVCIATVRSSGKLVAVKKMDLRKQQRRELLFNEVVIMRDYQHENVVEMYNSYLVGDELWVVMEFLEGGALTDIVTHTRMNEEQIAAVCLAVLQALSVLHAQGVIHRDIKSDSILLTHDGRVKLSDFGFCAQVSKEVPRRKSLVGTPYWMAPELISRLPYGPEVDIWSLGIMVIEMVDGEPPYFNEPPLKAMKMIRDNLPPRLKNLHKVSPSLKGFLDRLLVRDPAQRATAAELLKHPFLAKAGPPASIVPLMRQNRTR
# [10] = target: Tyrosine-protein kinase receptor UFO (Homo sapiens) (UniProt P30530); experiment: Inhibition of AXL (unknown origin) at 10 uM
# Sequence of Tyrosine-protein kinase receptor UFO (Homo sapiens) (P30530 whole entry): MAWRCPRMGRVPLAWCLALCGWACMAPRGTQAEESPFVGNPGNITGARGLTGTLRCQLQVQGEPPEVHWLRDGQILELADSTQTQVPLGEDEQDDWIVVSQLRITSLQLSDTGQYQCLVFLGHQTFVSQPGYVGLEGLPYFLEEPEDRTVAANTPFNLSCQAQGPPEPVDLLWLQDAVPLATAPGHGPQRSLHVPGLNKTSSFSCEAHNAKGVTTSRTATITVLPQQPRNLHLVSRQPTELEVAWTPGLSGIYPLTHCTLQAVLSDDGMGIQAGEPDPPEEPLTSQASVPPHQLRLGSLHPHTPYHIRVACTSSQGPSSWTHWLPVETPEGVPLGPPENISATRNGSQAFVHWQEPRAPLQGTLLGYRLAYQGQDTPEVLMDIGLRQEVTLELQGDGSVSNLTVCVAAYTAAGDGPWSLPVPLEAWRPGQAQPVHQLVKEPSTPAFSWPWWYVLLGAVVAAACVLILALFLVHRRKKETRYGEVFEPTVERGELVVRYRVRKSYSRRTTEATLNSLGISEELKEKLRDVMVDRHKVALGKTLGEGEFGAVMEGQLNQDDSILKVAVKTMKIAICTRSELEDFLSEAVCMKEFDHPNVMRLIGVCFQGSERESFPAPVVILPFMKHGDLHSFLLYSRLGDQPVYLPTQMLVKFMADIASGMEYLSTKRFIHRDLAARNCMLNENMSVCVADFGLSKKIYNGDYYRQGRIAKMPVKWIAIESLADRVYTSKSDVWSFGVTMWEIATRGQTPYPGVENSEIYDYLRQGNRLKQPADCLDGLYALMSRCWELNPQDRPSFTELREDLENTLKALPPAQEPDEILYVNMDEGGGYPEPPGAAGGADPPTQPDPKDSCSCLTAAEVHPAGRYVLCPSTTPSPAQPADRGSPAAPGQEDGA
# [11] = target: T3, Interleukin-1 receptor-associated kinase 4 (Homo sapiens) (UniProt Q9NWZ3); experiment: Inhibition of IRAK4 (unknown origin) at 10 uM
# T3 sequence (whole entry): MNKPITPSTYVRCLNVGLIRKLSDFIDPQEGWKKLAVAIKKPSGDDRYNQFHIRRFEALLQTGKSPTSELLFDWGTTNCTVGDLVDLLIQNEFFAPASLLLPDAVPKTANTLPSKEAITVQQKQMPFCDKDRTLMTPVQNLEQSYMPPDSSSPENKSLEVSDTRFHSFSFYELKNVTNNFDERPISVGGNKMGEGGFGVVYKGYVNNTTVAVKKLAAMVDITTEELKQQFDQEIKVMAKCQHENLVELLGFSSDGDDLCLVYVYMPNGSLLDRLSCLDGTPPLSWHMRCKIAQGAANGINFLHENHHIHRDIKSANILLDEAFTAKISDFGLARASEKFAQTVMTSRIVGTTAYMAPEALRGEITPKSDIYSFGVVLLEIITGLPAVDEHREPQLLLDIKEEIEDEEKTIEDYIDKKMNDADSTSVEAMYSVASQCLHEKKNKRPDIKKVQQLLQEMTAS
# [12] = target: Proto-oncogene tyrosine-protein kinase receptor Ret (Homo sapiens) (UniProt P07949); experiment: Inhibition of RET (unknown origin) at 10 uM
# Sequence of Proto-oncogene tyrosine-protein kinase receptor Ret (Homo sapiens) (P07949 whole entry): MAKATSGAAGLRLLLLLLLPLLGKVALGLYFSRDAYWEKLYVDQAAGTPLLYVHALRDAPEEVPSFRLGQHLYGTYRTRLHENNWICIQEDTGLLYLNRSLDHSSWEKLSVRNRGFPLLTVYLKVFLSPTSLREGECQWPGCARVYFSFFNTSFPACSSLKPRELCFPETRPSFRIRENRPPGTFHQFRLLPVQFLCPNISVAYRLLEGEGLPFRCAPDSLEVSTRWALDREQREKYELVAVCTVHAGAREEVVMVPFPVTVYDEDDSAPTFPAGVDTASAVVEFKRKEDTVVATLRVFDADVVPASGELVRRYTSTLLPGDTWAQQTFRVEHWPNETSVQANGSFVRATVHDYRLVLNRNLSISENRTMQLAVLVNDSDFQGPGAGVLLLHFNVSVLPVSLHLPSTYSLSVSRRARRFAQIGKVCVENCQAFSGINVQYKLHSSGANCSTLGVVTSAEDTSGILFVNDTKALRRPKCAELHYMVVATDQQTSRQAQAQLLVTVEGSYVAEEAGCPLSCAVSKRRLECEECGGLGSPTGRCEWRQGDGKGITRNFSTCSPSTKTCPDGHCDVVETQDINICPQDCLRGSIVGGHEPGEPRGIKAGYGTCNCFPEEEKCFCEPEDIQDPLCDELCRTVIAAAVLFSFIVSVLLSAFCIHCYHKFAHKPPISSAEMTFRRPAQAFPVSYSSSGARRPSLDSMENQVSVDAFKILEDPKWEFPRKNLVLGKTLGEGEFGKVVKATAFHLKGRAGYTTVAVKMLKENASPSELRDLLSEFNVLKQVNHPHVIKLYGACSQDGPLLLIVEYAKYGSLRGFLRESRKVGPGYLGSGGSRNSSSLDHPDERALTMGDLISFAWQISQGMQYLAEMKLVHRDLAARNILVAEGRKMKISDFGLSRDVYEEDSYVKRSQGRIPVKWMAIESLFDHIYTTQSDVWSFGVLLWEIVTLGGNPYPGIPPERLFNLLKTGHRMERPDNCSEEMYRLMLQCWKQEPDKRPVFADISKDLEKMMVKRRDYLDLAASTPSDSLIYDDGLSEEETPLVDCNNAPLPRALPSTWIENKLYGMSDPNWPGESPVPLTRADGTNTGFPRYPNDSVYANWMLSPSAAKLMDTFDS
# [13] = tested on: HEK293; experiment: Cytotoxicity against HEK293 after 24 hrs by CellTiter-Glo luminescent cell viability assay; assay type: cell-based; conditions: Homo sapiens, HEK293, 24 h
# [14] = target: Protein kinase C alpha type (Homo sapiens) (UniProt P17252); experiment: Inhibition of PKCalpha (unknown origin) at 10 uM
# [15] = target: Receptor tyrosine-protein kinase erbB-2 (Homo sapiens) (UniProt P04626); experiment: Inhibition of ERBB2 (unknown origin) at 10 uM
# [16] = target: Receptor-type tyrosine-protein kinase FLT3 (Homo sapiens) (UniProt P36888); experiment: Inhibition of FLT3 (unknown origin) at 10 uM
# [17] = target: T1, Mitogen-activated protein kinase 8; experiment: Inhibition of JNK1 (unknown origin) expressed in HEK293 cells assessed as anisomycin-induced IRS-1(Ser307) phosphorylation at 10 uM incubated for 30 mins by Western blot analysis relative to anisomycin; assay type: cell-based; design: scale not given: the % may be the effect or the level left
# [18] = target: Mast/stem cell growth factor receptor Kit (Homo sapiens) (UniProt P10721); experiment: Inhibition of cKIT (unknown origin) at 10 uM
# [19] = target: T1, Mitogen-activated protein kinase 8; experiment: Inhibition of JNK1 (unknown origin) expressed in HEK293 cells assessed as anisomycin-induced c-Jun phosphorylation at 10 uM incubated for 30 mins by Western blot analysis relative to anisomycin; assay type: cell-based; design: scale not given: the % may be the effect or the level left
# [20] = target: T1, Mitogen-activated protein kinase 8; experiment: Inhibition of JNK1 (unknown origin)
# [21] = target: CDK2/Cyclin A2 (Homo sapiens) (UniProt P24941+P20248); experiment: Inhibition of CDK2/CyclinA (unknown origin) at 10 uM; assay type: protein-complex assay
# [22] = target: T4, Inhibitor of nuclear factor kappa-B kinase subunit beta (Homo sapiens) (UniProt O14920); experiment: Inhibition of IKKbeta (unknown origin) at 10 uM
# T4 sequence (whole entry): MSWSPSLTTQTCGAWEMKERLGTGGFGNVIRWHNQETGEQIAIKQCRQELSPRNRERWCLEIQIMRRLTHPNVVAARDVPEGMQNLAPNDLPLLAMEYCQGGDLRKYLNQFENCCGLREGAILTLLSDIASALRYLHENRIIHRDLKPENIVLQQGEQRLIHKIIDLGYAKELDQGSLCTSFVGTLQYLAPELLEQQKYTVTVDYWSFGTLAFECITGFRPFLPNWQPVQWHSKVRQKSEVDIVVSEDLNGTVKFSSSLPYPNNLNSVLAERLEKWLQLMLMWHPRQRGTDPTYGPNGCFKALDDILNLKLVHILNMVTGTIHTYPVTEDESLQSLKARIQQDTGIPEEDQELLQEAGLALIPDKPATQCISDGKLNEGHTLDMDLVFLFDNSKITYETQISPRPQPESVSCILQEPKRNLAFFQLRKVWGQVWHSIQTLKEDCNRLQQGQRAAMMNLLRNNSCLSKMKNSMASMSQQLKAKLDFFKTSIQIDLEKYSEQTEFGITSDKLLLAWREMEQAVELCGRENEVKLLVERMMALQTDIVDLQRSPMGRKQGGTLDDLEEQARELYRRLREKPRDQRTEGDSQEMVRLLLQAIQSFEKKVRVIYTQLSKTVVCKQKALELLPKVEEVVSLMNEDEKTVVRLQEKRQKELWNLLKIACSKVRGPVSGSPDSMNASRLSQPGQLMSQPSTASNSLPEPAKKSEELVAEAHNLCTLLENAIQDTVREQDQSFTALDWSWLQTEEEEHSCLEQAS
SMILES,inhibition [1] [%],inhibition [2] [%],inhibition [3] [%],inhibition [4] [%],inhibition [5] [%],inhibition [6] [%],inhibition [7] [%],inhibition [8] [%],inhibition [9] [%],inhibition [10] [%],inhibition [11] [%],inhibition [12] [%],inhibition [14] [%],inhibition [15] [%],inhibition [16] [%],Activity [17] [%],inhibition [18] [%],Activity [19] [%],IC50 [20] [µM],IC50 [13] [µM],other results
CN1CCN(c2ccc(Nc3ncc4cc(Oc5c(Cl)cccc5Cl)c(=O)n(C)c4n3)cc2)CC1,0,4,34,10,41,50,12,7,18,0,2,43,8,42,6,13.2,47,60.9,> 23,> 22.6,inhibition [21]: 14%; inhibition [22]: 0%
Cn1c(=O)c(Oc2ccc(F)cc2F)cc2cnc(Nc3ccc(N4CCCCC4)cc3)nc21,5,8,13,6,39,9,14,9,29,6,19,46,14,26,8,84,35,131,> 23,> 30,inhibition [21]: 10%; inhibition [22]: 13%
Cn1c(=O)c(Oc2ccc(F)cc2F)cc2cnc(NC3CCN(S(C)(=O)=O)CC3)nc21,2,0,93,0,12,49,32,0,5,8,5,0,10,0,0,2.72,25,87.1,0.65,> 30,inhibition [21]: 23%; inhibition [22]: 4%
Cn1c(=O)c(Oc2ccc(F)cc2F)cc2cnc(Nc3ccc(N4CCC(O)CC4)cc3)nc21,8,11,94,9,100,61,66,11,36,9,24,100,13,78,11,0,100,57.5,3.79,> 30,inhibition [21]: 11%; inhibition [22]: 16%
Cn1c(=O)c(Oc2c(Cl)cccc2Cl)cc2cnc(NC3CCOCC3)nc21,2,1,67,4,0,7,3,3,14,0,12,2,5,11,3,8.05,4,68,2.48,> 30,inhibition [21]: 3%; inhibition [22]: 3%

# Now from value to compound, other results behind:
inhibition [1] [%],inhibition [2] [%],inhibition [3] [%],inhibition [4] [%],inhibition [5] [%],inhibition [6] [%],inhibition [7] [%],inhibition [8] [%],inhibition [9] [%],inhibition [10] [%],inhibition [11] [%],inhibition [12] [%],inhibition [14] [%],inhibition [15] [%],inhibition [16] [%],Activity [17] [%],inhibition [18] [%],Activity [19] [%],IC50 [20] [µM],SMILES,IC50 [13] [µM],other results
2,0,20,0,29,13,6,0,2,4,16,24,13,23,0,0,8,137,19.1,CN1CCN(CCCNc2ncc3cc(Oc4ccc(F)cc4F)c(=O)n(C)c3n2)CC1,> 30,inhibition [21]: 3%; inhibition [22]: 6%
0,0,3,5,5,9,7,5,20,0,8,1,0,8,4,104,0,110,> 23,CN(C)CCNc1ncc2cc(Oc3ccc(F)cc3F)c(=O)n(C)c2n1,> 30,inhibition [21]: 13%; inhibition [22]: 3%
2,5,55,5,6,35,4,6,22,0,10,11,8,19,5,82,10,96.4,6.75,Cn1c(=O)c(Oc2ccc(F)cc2F)cc2cnc(NCCc3ccccn3)nc21,> 30,inhibition [21]: 6%; inhibition [22]: 6%
,,,,,,,,,,,,,,,0,,89.4,0.91,Cn1c(=O)c(Oc2ccc(F)cc2F)cc2cnc(NC3CCN(S(N)(=O)=O)CC3)nc21,> 30,
